Broadly, the melting point is the temperature of the solid-liquid transition.

Series [1] addresses T1, α1A Human Adrenergic Receptor (Homo sapiens, UniProt P25100).
T1 construct: The entire coding region of α1A (1719 bp); expressed in transfected cells
T1 sequence (P25100 1-572): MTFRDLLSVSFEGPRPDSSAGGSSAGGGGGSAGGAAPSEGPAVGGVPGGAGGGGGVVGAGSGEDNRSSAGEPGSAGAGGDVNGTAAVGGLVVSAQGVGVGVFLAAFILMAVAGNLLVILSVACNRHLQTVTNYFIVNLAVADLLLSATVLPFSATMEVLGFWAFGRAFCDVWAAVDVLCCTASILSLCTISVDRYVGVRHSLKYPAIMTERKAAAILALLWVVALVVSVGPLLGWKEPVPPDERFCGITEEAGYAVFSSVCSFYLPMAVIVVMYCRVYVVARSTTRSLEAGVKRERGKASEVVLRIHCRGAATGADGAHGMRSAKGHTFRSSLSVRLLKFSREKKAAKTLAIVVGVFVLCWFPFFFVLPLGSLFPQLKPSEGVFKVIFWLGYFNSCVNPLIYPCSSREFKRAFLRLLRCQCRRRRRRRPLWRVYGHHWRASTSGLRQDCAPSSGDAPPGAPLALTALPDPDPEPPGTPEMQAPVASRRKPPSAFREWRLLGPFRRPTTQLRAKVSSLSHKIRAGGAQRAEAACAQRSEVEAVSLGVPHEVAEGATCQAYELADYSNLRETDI
Put plainly: Radioligand binding, [3H]prazosin, cloned human α1A adrenergic receptor. Particulars: [3H]prazosin, cloned human receptor, LM(tk-) cell membranes; mean; read-out: PKi alpha-1 1a (converted). The method, boiled down:
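Competition binding used membrane preparations of transfected LM(tk−) cells and the α1 antagonist [3H]prazosin at 0.5 nM, incubated 20 min at 37° C in Tris-HCl buffer, pH 7.5.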

Series [2] has as its target T2, α1B Human Adrenergic Receptor (Homo sapiens, UniProt P35368).
T2 construct: The entire coding region of α1B (1563 bp); expressed in transfected cells
T2 sequence (P35368 1-520): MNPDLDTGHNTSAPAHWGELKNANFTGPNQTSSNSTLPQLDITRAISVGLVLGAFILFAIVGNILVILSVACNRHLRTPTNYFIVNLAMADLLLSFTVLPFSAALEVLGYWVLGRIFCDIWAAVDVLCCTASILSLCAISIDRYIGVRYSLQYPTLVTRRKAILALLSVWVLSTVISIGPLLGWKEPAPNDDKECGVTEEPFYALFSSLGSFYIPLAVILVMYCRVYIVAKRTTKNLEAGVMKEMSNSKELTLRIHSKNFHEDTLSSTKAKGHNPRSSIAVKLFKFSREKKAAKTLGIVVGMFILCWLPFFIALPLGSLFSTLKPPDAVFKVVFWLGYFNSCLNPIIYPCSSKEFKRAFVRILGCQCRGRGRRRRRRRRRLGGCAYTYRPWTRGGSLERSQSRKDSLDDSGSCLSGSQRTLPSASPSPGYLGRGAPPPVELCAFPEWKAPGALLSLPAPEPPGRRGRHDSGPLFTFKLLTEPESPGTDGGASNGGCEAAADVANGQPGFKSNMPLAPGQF
The experiment in a line: Radioligand binding, [3H]prazosin, cloned human α1B adrenergic receptor. Particulars: cloned human receptor, LM(tk-) cell membranes, mean, read-out: PKi alpha-1 1b (converted). The protocol: (§1) The protocols for these experiments are given below.
(§2) These cell lines were prepared by transfecting the cloned cDNA or cloned genomic DNA or constructs containing both genomic DNA and cDNA encoding the human α-adrenergic receptors as follows:
α1B Human Adrenergic Receptor:
The construct involved ligating the full-length containing EcoRI brainstem cDNA fragment from λ ZapII into the expression vector. Stable cell lines were selected as described above.
(§3) Radioligand Binding Assays:
(§4) Transfected cells from culture flasks were scraped into 5 ml of 5 mM Tris-HCl, 5 mM EDTA, pH 7.5, and lysed by sonication. The cell lysates were centrifuged at 1000 rpm for 5 min at 4° C., and the supernatant was centrifuged at 30,000× g for 20 min at 4° C. The pellet was suspended in 50 mM Tris-HCl, 1 mM MgCl2, and 0.1% ascorbic acid at pH 7.5. Binding of the α1 antagonist [^3H]prazosin (0.5 nM, specific activity 76.2 Ci/mmol) to membrane preparations of LM(tk−) cells was done in a final volume of 0.25 ml and incubated at 37° C. for 20 min. Nonspecific binding was determined in the presence of 10 μM phentolamine. The reaction was stopped by filtration through GF/B filters using a cell harvester.

Series [3] concerns the target T3, α1C Human Adrenergic Receptor (Homo sapiens, UniProt P35348).
T3 construct: The entire coding region of α1C (1401 bp); expressed in transfected cells
T3 sequence (P35348 1-466): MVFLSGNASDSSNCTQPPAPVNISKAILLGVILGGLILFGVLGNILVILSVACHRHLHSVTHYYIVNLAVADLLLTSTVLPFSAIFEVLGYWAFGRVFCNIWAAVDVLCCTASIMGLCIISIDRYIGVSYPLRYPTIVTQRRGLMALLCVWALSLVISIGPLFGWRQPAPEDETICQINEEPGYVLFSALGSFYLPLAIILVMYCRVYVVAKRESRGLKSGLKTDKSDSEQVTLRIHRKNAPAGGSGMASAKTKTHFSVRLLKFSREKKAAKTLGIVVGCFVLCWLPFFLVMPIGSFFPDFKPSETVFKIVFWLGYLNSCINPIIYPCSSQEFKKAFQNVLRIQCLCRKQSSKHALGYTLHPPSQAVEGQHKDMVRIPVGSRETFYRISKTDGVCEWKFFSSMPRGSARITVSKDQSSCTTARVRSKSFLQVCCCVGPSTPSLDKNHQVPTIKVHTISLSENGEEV
The experiment in a line: Radioligand binding, [3H]prazosin, cloned human α1C adrenergic receptor. Particulars: cloned human receptor, LM(tk-) cell membranes, mean, read-out: PKi alpha-1 1c (converted). As for the experimental part:
as §1, §2
α1C Human Adrenergic Receptor:
The construct involved ligating three partial overlapping fragments: a 5′, 0.6 kb HincII genomic clone, a central 1.8 EcoRI hippocampal cDNA clone, and a 3′ 0.6Kb PstI genomic clone. The hippocampal cDNA fragment overlaps with the 5′ and 3′ genomic clones so that the HincII and PstI sites at the 5′ and 3′ ends of the cDNA clone, respectively, were utilized for ligation. This full-length clone was cloned into the KpnI site of the expression vector, using the 5′ and 3′ KpnI sites of the fragment, derived from vector (i.e., pBluescript) and 3′-untranslated sequences, respectively. Stable cell lines were selected as described above.
as §3, §4

In turn, `CCOC(=O)C1(c2ccccc2)CCN(CCCNC(=O)C2=C(CC)NC(CC)=C(C(=O)NC)C2c2ccc([N+](=O)[O-])cc2)CC1` (stereo not drawn) [Example 181, 2,6-Diethyl-1,4-dihydro-3-{N-[3-(4-ethoxycarbonyl-4-phenylpiperidin-1-yl)propyl]}carboxamido-5-(N-methyl) carboxamido-4-(4-nitrophenyl)pyridine] came in with a melting point of 95 to 97 °C. For the same compound, in series [1], the Ki was 3470 nM. In series [2], the Ki was 1070 nM. In addition, the Ki in series [3] is 4.07 nM.

On to `CCOC(=O)C1(c2ccccc2)CCN(CCCNC(=O)C2=C(COCCN=[N+]=[N-])NC(CC)=C(C(=O)O)C2c2ccc([N+](=O)[O-])cc2)CC1` (stereo not drawn) [Example 189], for which the melting point is 109 to 110 °C. Also, the Ki in series [1] was 4680 nM. For the same compound, the Ki in series [2] was 1410 nM. For the same compound, in series [3], the Ki was 26.3 nM.

`CCOC(=O)C1(c2ccccc2)CCN(CCCNC(=O)C2=C(COCCN=[N+]=[N-])NC(CC)=C(C(N)=O)C2c2ccc([N+](=O)[O-])cc2)CC1` (stereo not drawn) [Example 190, 2-[(2-Azidoethoxy)methyl]-5-carboxamido-3-{N-[3-(4-ethoxycarbonyl-4-phenylpiperidin-1-yl)propyl]}carboxamido-1,4-dihydro-6-ethyl-4-(4-nitrophenyl)pyridine] had a melting point of 63 to 64 °C. The Ki in series [1] is 1350 nM. Further, the Ki in series [2] was 708 nM. In series [3], the Ki was 5.37 nM.

Take `CCOC(=O)C1(c2ccccc2)CCN(CCCNC(=O)C2=C(COCCN=[N+]=[N-])NC(CC)=C(C(=O)NC)C2c2ccc([N+](=O)[O-])cc2)CC1` (stereo not drawn) [Example 191, 2-[(2-Azidoethoxy)methyl]-3-{N-[3-(4-ethoxycarbonyl-4-phenyl-piperidin-1-yl)propyl]}carboxamido-1,4-dihydro-6-ethyl-5-(N-methyl)carboxamido-4-(4-nitrophenyl)pyridine]: the melting point is 67 to 68 °C. In addition, the Ki in series [1] was 1950 nM. The Ki in series [2] is 1350 nM. Further, the Ki in series [3] was 8.13 nM.

Consider `CCOC(=O)C1(c2ccccc2)CCN(CCCNC(=O)C2=C(COCCN=[N+]=[N-])NC(CC)=C(C(=O)OC)C2c2ccc([N+](=O)[O-])cc2)CC1` (stereo not drawn) [Example 195, 2-[(2-Azidoethoxy)methyl]-3-{N-[3-(4-ethoxycarbonyl-4-phenylpiperidin-1-yl)propyl]}carboxamido-1,4-dihydro-6-ethyl-5-methoxycarbonyl-4-(4-nitrophenyl)pyridine], for which the melting point lay within 56 to 57 °C. In series [1], the Ki was 288 nM. Besides, in series [2], the Ki is 129 nM. The Ki in series [3] is 7.08 nM.

On to `CC1=C(C(N)=O)C(c2ccc([N+](=O)[O-])cc2)C(C(=O)NCCCN2CCC(C#N)(c3ccccc3)CC2)=C(COCCN=[N+]=[N-])N1` (stereo not drawn) [Example 214, 2-((2-Azidoethyl)oxy)methyl-5-carboxamido-3-(N-(3-(4-cyano-4-phenylpiperidin-1-yl)propyl)) carboxamido-1,4-dihydro-6-methyl-4-(4-nitro)phenylpyridine], for which the melting point is 81 °C (dec.). In addition, the Ki in series [1] was 2570 nM. In series [2], the Ki is 776 nM. The Ki in series [3] was 6.17 nM.

The values above are taken from patent US6608086B2, “Dihydropyridines and new uses thereof” (Synaptic Pharmaceutical Corporation, priority 1993, dated 2003).
